Assays:
Assay type in all cases: in vivo
Alopecurus [1] = assay: Pre-emergence test, greenhouse; conditions: after three weeks
Experimental: (§1) • Solvent: 5 parts by weight of acetone • Emulsifier: 1 part by weight of alkylaryl polyglycol ether
(§2) To produce a suitable preparation of active compound, 1 part by weight of active compound is mixed to the stated amount of solvent, the stated amount of emulsifier is added and the concentrate is diluted with water to the desired concentration.
(§3) Seeds of the test plants are sown in normal soil. After about 24 hours, the soil is sprayed with the preparation of active compounds such that the particular amounts of active compound desired are applied per unit area. The concentration of the spray liquor is chosen such that the particular amounts of active compound desired are applied in 1 000 l of water/ha.
(§4) After three weeks, the degree of damage to the plants is rated in % damage in comparison to the development of the untreated control.
(§5) The figures denote: • 0%=no effect (like untreated control) • 100%=total destruction

Amaranthus [2] = assay: Pre-emergence test, greenhouse; conditions: 500 g/ha, after three weeks
Experimental: as §1, §2, §3, §4, §5

Galium = assay: Pre-emergence test, greenhouse; conditions: 500 g/ha, after three weeks
Experimental: as §1, §2, §3, §4, §5

Meloidogyne incognita = assay: Meloidogyne test; conditions: 20 ppm active compound; after 14 days; lettuce
Experimental: Meloidogyne Test • Solvent: 30 parts by weight of dimethylformamide • Emulsifier: 1 part by weight of alkylaryl polyglycol ether To produce a suitable preparation of active compound, 1 part by weight of active compound is mixed with the stated amounts of solvent and emulsifier, and the concentrate is diluted with water to the desired concentration. Containers are filled with sand, solution of active compound, Meloidogyne incognita egg/larvae suspension and lettuce seeds. The lettuce seeds germinate and the plants develop. On the roots, galls are formed. After the desired period of time, the nematicidal action in % is determined using the formation of galls as a measure. 100% means that no galls have been found; 0% means that the number of galls on the treated plants corresponds to that on the untreated control.

Tetranychus urticae = assay: Tetranychus test (OP-resistent/dip treatment); conditions: 100 ppm active compound; after 7 days; bean plants dipped
Experimental: Tetranychus Test (OP-Resistent/Dip Treatment)
• Solvent: 30 parts by weight of dimethylformamide • Emulsifier: 1 part by weight of alkylaryl polyglycol ether
To produce a suitable preparation of active compound, 1 part by weight of active compound is mixed with the stated amounts of solvent and emulsifier, and the concentrate is diluted with emulsifier-containing water to the desired concentration.
Bean plants (Phaseolus vulgaris) which are heavily infested by all stages of the greenhouse […] spider mite (Tetranychus urticae) are treated by being dipped into a preparation of active compound of the desired concentration.
After the desired period of time, the effect in % is determined. 100% means that all spider mites have been killed; 0% means that none of the spider mites have been killed.

Alopecurus [3] = assay: Post-emergence test, greenhouse; conditions: 2 000 g/ha, after three weeks
Experimental: as §1
(§6) To produce a suitable preparation of active compound, 1 part by weight of active compound is mixed with the stated amount of solvent, the stated amount of emulsifier is added and the concentrate is diluted with water to the desired concentration.
(§7) Test plants of a height of 5-15 cm are sprayed with the preparation of active compound such that the particular amounts of active compound desired are applied per unit area. The concentration of the spray liquor was chosen such that the particular amounts of active compound desired are applied in 1 000 l of water/ha.
as §4, §5

Amaranthus [4] = assay: Post-emergence test, greenhouse; conditions: after three weeks
Experimental: as §1, §6, §7, §4, §5

Echinochloa [5] = assay: Post-emergence test, greenhouse; conditions: after three weeks
Experimental: as §1, §6, §7, §4, §5

Setaria [6] = assay: Post-emergence test, greenhouse; conditions: after three weeks
Experimental: as §1, §6, §7, §4, §5

Sugar beet = assay: Post-emergence test, greenhouse; conditions: after three weeks
Experimental: as §1, §6, §7, §4, §5

Digitaria = assay: Pre-emergence test, greenhouse; conditions: 250 g/ha, after three weeks
Experimental: as §1, §2, §3, §4, §5

Echinochloa [7] = assay: Pre-emergence test, greenhouse; conditions: after three weeks
Experimental: as §1, §2, §3, §4, §5

Lolium = assay: Pre-emergence test, greenhouse; conditions: 250 g/ha, after three weeks
Experimental: as §1, §2, §3, §4, §5

Setaria [8] = assay: Pre-emergence test, greenhouse; conditions: after three weeks
Experimental: as §1, §2, §3, §4, §5

Soya = assay: Pre-emergence test, greenhouse; conditions: 250 g/ha, after three weeks
Experimental: as §1, §2, §3, §4, §5

Wheat = assay: Pre-emergence test, greenhouse; conditions: 250 g/ha, after three weeks
Experimental: as §1, §2, §3, §4, §5

Avena fatua [9] = assay: Post-emergence test, greenhouse; conditions: 2 000 g/ha, after three weeks
Experimental: as §1, §6, §7, §4, §5

Avena fatua [10] = assay: Pre-emergence test, greenhouse; conditions: 2 000 g/ha, after three weeks
Experimental: as §1, §2, §3, §4, §5

Cc1cc(Cl)cc(Cl)c1C1=C(O)CC(C)(C)NC1=O [I-a-3]
% damage Alopecurus (Alopecurus [1]; 500 g/ha): 70%
% damage Amaranthus (Amaranthus [2]): 70%
% damage Galium (Galium): 100%

Cc1ccc(Br)cc1C1=C(O)CC(C)(C)NC1=O [I-a-4]
kill (nematicidal action, formation of galls as measure) (Meloidogyne incognita): 95%

Cc1ccc(-c2ccc(Cl)cc2)cc1C1=C(O)CC(C)(C)NC1=O [I-a-5]
kill of spider mites (Tetranychus urticae): 99%

Cc1cc(Br)cc(Cl)c1C1=C(O)CC(C)(C)NC1=O [I-a-10]
% damage Alopecurus (Alopecurus [3]): 70%
% damage Amaranthus (Amaranthus [4]; 2 000 g/ha): 70%
% damage Echinochloa (Echinochloa [5]; 2 000 g/ha): 80%
% damage Setaria (Setaria [6]; 2 000 g/ha): 80%
% damage Sugar beet (Sugar beet; 2 000 g/ha): 0%
% damage Digitaria (Digitaria): 90%
% damage Echinochloa (Echinochloa [7]; 250 g/ha): 80%
% damage Lolium (Lolium): 100%
% damage Setaria (Setaria [8]; 250 g/ha): 95%
% damage Soya (Soya): 0%
% damage Wheat (Wheat): 0%

CCc1cc(Br)cc(Cl)c1C1=C(O)CC(C)(C)NC1=O [I-a-11]
% damage Alopecurus (Alopecurus [3]): 95%
% damage Avena fatua (Avena fatua [9]): 100%
% damage Echinochloa (Echinochloa [5]; 2 000 g/ha): 100%
% damage Setaria (Setaria [6]; 2 000 g/ha): 100%
% damage Sugar beet (Sugar beet; 2 000 g/ha): 90%
% damage Alopecurus (Alopecurus [1]; 2 000 g/ha): 100%
% damage Avena fatua (Avena fatua [10]): 100%
% damage Echinochloa (Echinochloa [7]; 2 000 g/ha): 100%
% damage Setaria (Setaria [8]; 2 000 g/ha): 100%

CCOC(=O)OC1=C(c2cc(-c3ccc(Cl)cc3)ccc2C)C(=O)NC(C)(C)C1 [I-c-1]
kill of spider mites (Tetranychus urticae): 95%
% damage Amaranthus (Amaranthus [4]; 250 g/ha): 80%
% damage Echinochloa (Echinochloa [5]; 250 g/ha): 70%
% damage Setaria (Setaria [6]; 250 g/ha): 80%
% damage Sugar beet (Sugar beet; 250 g/ha): 0%

Reference: US7547660B2, “Phenyl-substituted 4-hydroxy-tetrahydropyridones” (Bayer Aktiengesellschaft, priority 2000, dated 2009)
